“Also recorded” adds a separate entry of the source.
Tests used:
[1] = system: reactive oxygen species generation by PMNs; test: Reactive oxygen species generation (dihydrorhodamine, flow cytometry); format: cell-based, human; conditions: LPS 100 ng/mL, 1 hour
Protocol: FIG. 6B is a graph depicting reactive oxygen species generation that was measured by dihydrorhodamine detection after LPS stimulation (100 ng/mL, 1 hour).
Human PMNs isolated from healthy adult whole blood were resuspended to a concentration of 2×10^6 cells/mL in M-199 media and pre-incubated±CRISPP (1 nM) or CRISPP-SCR (1 nM) peptide for 1 hour at 37° C. in 5% CO2/95% air. The PMNs were then stimulated with LPS (100 ng/mL) for 1 hour, washed, and resuspended with a dihydrorhodamine ([…]; MOLECULAR PROBES®) and catalase (1000 Units/mL; SIGMA-ALDRICH®) mixture and incubated at 37° C. for 10 minutes. After incubation, samples were placed at 4° C. and analyzed for ROS-dependent fluorescence using flow cytometry as performed in the University of Utah core facility (BECTON DICKINSON™, […]™ software).
Without being bound by any specific theory, it was hypothesized that placentally expressed HTRA1, a serine protease, regulates the formation of NET-inhibitory peptides through cleavage of AAT. To test this hypothesis, term and preterm placenta were assessed for HTRA1 expression via western blotting. HTRA1 and AAT plasma expression from term and preterm infants and adults were determined by ELISA. Bioactive (0.5 μg) or placental eluted HTRA1 was incubated with AAT (8 μM) for 18 hours at 37° C. Carboxy-terminus fragments of AAT were detected using western blotting and mass spectrometry. […]

neutrophil elastase (NE) = molecular target: T1, neutrophil elastase (NE) (Homo sapiens, UniProt P08246); test: Neutrophil elastase activity assay; format: biochemical; conditions: in vitro; (MeOSuc)-AAPV-(pNA) 160 μM, 3 hours, 37° C., and additional assays
T1 construct: purchased SIGMA-ALDRICH
T1 sequence (P08246 30-267): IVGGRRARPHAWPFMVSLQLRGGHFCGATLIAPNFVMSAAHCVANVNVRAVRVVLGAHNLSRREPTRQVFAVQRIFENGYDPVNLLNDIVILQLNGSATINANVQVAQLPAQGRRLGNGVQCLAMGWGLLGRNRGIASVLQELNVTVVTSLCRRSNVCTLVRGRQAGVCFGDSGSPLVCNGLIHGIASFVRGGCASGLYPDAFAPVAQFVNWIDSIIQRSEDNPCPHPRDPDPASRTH
Protocol: FIG. 12B depicts NE enzyme activity that was examined by cleavage of the synthetic substrate (MeOSuc)-AAPV-(pNA) to (MeOSuc)-AAPV and (pNA) as products detected by liquid chromatography and chromatogram peak identification by mass spectroscopy. (MeOSuc)-AAPV-(pNA) (160 μm) was incubated with NE (2 mU), sivelestat (160 μm), or NE and sivelestat (left panel) or with NE (2 mU), nNIF ([…]), or NE and nNIF (right panel) for 3 hours at 37° C. Chromatograms are offset on the X and Y axes for ease of comparison. In the presence of NE alone, the (MeOSvc)-AAPV-(pNA) peak was almost completely eliminated and (MeOSvc)-AAPV and (pNA) peaks were generated. […] In contrast, it was not inhibited by nNIF.
Synthetic fluorogenic substrate of NE, (MeOSuc)-AAPV-(pNA) (160 μM), was incubated with bioactive NE (500 nM)±the NE inhibitor, sivelestat (160 μM) or nNIF (50 nM), for 3 hours at 37° C. The reactions were quenched with 5% glacial acetic acid and centrifuged at 14,000 rpm for 5 minutes. Chromatograms were obtained using an AGILENT™ 1100 Series HPLC and a PHENOMENEX® 5 μm C18 LUNA® column (100 Å, 4.6×150 mm) over a 30 minute 10% to 90% B gradient (Buffer A 0.1% TFA in H2O, Buffer B 0.1% TFA in ACN). Mass spectra were obtained for secondary validation of the reaction products using an API® 3500 triple quadrupole mass spectrometer. Chromatograms were offset on both the X and Y axes (by 0.5 minutes and 0.1 A214, respectively) for greater visibility.

[2] = system: C57BL/6 mice challenged with LPS; test: Mouse model of systemic inflammation induced by LPS (endotoxemia), survival; format: in vivo
Protocol: Animals with no treatments or given LPS alone were studied in parallel (n≥10 mice for each condition). **P<0.01, log-rank (Mantel-Cox) statistical tool used. The survival difference between nNIF-LPS and CRISPP-LPS compared to CRISPP-SCR-LPS trended toward significance (§ P=0.051).
Control mice were i.p. injected with saline alone. Fluid resuscitation and antibiotic treatment were not used in these experiments. Survival was assessed over 50 or 72 hour intervals. All mice were included in the final survival analysis.

recombinant PAD4 = molecular target: T2, recombinant PAD4 (Homo sapiens, UniProt Q9UM07); test: Cell-free PAD4 deimination assay; format: biochemical; conditions: for PAD4 activity: cell-free, synthetic substrate, nNIF 1 nM, Cl-amidine 10 μM; for order of potency of inhibition of PAD4: initial comparison of NRPs
T2 construct: purchased CAYMAN
Protocol: One way ANOVA with Tukey's post hoc testing, ***P<0.001.
nNIF inhibition of PAD4 activity was determined using a PAD4 inhibitor screening assay kit (CAYMAN™). Briefly, nNIF (1 nM) was incubated with recombinant PAD4 and PAD4 enzyme substrate (2 mM) in PAD4 assay reagent for 30 minutes at 37° C. […] The reaction was stopped with PAD4 Stop Solution and detected using an included ammonia detector assay. Ammonia detector fluorescence was measured at 470 nm following excitation at 405 nm on a SPECTRAMAX™ M5 fluorescence plate reader (MOLECULAR DEVICES™).

[3] = system: nuclear histone H3 citrullination; test: Histone H3 citrullination in PMA-activated neutrophils (immunocytochemistry); format: cell-based, human; conditions: PMA 20 nM, 15 minutes; peptides 1 nM, Cl-amidine 10 μM
Text: Green fluorescence=citrullinated-histone H3, magenta fluorescence=nuclear DNA (60× magnification; scale bar=20 μm). The right panel depicts Histone H3 citrullination that was quantified using IMAGEJ™ software (mean citrullinated-histone H3 pixel area per cell±SEM) (n=3). One way ANOVA with Tukey's post hoc testing, *P<0.05.
Imaging was accomplished via confocal microscopy using a FV1000 IX81 confocal microscope and FLUOVIEW™ software (OLYMPUS™). Semi-quantitation was accomplished using IMAGEJ™ software (NIH) to determine the average citrullinated histone H3 content per cell.

T2 sequence (Q9UM07 whole entry): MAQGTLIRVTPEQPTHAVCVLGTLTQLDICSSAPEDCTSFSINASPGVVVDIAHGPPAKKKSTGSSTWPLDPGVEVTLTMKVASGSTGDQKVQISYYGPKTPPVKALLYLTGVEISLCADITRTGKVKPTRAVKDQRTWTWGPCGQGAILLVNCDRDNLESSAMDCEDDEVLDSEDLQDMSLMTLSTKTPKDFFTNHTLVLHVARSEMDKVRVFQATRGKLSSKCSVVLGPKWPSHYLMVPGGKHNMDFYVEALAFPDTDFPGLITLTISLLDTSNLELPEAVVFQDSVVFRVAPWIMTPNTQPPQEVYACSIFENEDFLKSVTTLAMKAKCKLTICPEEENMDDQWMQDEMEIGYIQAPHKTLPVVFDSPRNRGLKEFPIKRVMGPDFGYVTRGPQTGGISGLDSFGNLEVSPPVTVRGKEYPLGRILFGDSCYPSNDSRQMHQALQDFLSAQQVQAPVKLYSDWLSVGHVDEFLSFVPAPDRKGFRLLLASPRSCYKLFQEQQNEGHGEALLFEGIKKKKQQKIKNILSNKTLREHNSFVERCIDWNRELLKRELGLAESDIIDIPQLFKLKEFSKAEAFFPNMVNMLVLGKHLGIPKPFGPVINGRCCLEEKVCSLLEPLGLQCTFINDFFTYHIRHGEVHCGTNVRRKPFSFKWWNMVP

With “KFNKPFVFLMIEQNTKSPLFMGKVVNPTQ (listed as Homo sapiens) [nNIF]” the “generation of reactive oxygen species (ROS)” value [1] was “did not inhibit”, the “NE activity (substrate cleavage)” value (neutrophil elastase (NE)) was “neither nNIF nor CRISPP inhibited NE activity; also recorded: not inhibited” and the “survival advantage at 72 hours” value ([2]; second experiment, compared to LPS alone) was “durable”. The PAD4 activity (recombinant PAD4) was “blocked its activity”, the “order of potency of inhibition of PAD4” value (recombinant PAD4) was “nNIF ≈CRISPP>A1ATm^358” and the “nuclear histone H3 citrullination” value [3] was “inhibited”.
With “M_IPPEVKFNKPFVFLMIDQNTKVPLFMGK [CRISPP, consensus peptide based on factors present in the blood of patients with cancer]” the “generation of reactive oxygen species (ROS)” value [1] was “did not inhibit; also recorded: not inhibited”, the “NE activity (substrate cleavage)” value (neutrophil elastase (NE)) was “neither nNIF nor CRISPP inhibited NE activity” and the “animals alive at 50 hours” value ([2]; i.p. LPS, first experiment, n=6 per group) was “all”. The PAD4 activity (recombinant PAD4) was “inhibited”, the “order of potency of inhibition of PAD4” value (recombinant PAD4) was “nNIF ≈CRISPP>A1ATm^358” and the “nuclear histone H3 citrullination” value [3] was “inhibited”.
